SMILES strings stand for the structures. Where two headings read alike, the source gives them in different places.

From article PMC12067444, “Synthesis and Pharmacological Characterization of Novel Peripheral Cannabinoid-1 Receptor Blockers Based on a Tricyclic Scaffold” (Journal of Medicinal Chemistry, 2025) come the findings set out here.

In one data set the target is T1, mouse CB1R (Mus musculus, UniProt P47746).
T1 construct: crude membranes from mouse brain; from tissue; host or cells: mouse brain cortex (without cerebellum) membranes, C57Bl/6Jhsd mice
Briefly: Radioligand competition displacement binding, [3H]CP-55,940, mouse brain membranes. The procedure:
BNS compounds’ binding to CB1R and CB2R was assessed in competition displacement assays using [^3H]CP-55,940 as the radioligand and crude membranes from mouse brain or human cells overexpressing the CB1R or CB2R. All data were in triplicates with Ki values determined from three independent experiments. See SI for a detailed procedure.
Supplementary Experimental Methods
Brain membrane preparation for CB1R b i nd i ng . The mouse cortex, excluding the cerebellum, was dissected from 6-week-old C57Bl/6Jhsd mice (Harlan, Israel). The tissue was homogenized in 4 mL Buffer 1 (320 mM sucrose, 2 mM EDTA, 5 m M MgCl 2) using a glass-Teflon homogenizer and Hei-T ORQUE 200 (Heidolph; Cat# 17-012- 002- 25 -1) homogenizer set to 132 rpm. After homogenization, the mixture was centrifuged at 1,600 × g for 10 min at four °C, and the resulting supernatant was kept on ice. The pellet (P1) was discarded, and the remaining supernatant was subje cted to additional rounds of resuspension in 4 mL Buffer 1 followed by centrifugations, repeating this process three times. The pellets obtained from these centrifugations were discarded, and the three supernatant fractions were combined and subjected to higher-speed centrifugation at 39,000 × g for 15 min at f ou r °C. […] This resuspended pellet ( P 2 ) was incubated at 37 °C for 10 min and then centrifuged at 23, 000 × g for 10 min at 4°C.
After centrifugation, the pellet (P2) was resuspended in 5 mL Buffer 2 and further incubated at 30 °C for 40 min. Following this incubation, the suspension was centrifuged at 11,000 × g for 15 min at 4 °C. The pellet (P2) was resuspended in 2 mL Buffer 3 containing 50 mM TRIS HCl pH 7.4, 1 mM EDTA, and 3 mM MgCl 2. T h e protein concentration of the final suspension was determined using the BCA assay.
Subsequently, the suspension was diluted to a final concentration of 2 mg/mL in Buffer 3, aliquoted on ice, and stored at - 80 °C for further use.
CB1R and CB2R binding. Binding to the CB1R/CB2R was asse ss ed using competition displacement as says with [ 3H] CP -55,940 as the radioligand. Purified membranes from the mouse brain were utilized for CB1R assessment (as described above). Purified […]
membranes from cells overexpressing human CB2R ( Char les River CAT # A618) w e r e employed for CB2R evaluation.
For mouse CB1R binding assays, the novel compounds were dissolved in dimethyl sulfoxide (DMSO) to reach a final concentration of 10 mM. Each compound was then diluted in Buffer 3 (as described above) supplemented with 0.14% BSA, resulting in concentrations ranging from 10^-4 M to 10^-10 M. Triplicates of 100 µL of each concentration were dispensed into siliconized glass tubes. At the same time, 100 µL of Buffer 3 with 0.14% BSA was dispensed into three tubes as blanks. CB1R b r a i n membranes (20 µg) were added to each tube and diluted with 800 µL Buffer 3 with 0.14% BSA. Subsequently, 5 nM of [ 3H] CP -55,940 (100 µL) was added to each tube.
The tubes were sealed with parafilm and incubated with shaking (120 rpm) in a water bath at 30 °C for 1 hour. Following incubation, 2 mL of cold Buffer 4 (50 mM TRIS HCl pH 7.4, 1 mg/mL BSA) was added to each tube.
To harvest the content of each tube, a Brandel M-24R Vacuum Harvester was employed, with a wet WHATMAN GF/B filter paper (Fired) (one membrane for 12 tubes) placed in the harvester after being washed twice with Buffer 4. The filter membrane in the harvester absorbed the full content of each tube. Then, the filter membrane was wash ed six times with Buffer 4. Each filter -glass membrane tube wa s excised and transferred to a 20 mL glass tube co ntaining a 5 mL ULTIMA GOLD scintillation cocktail. […]
(In general: In a radioligand displacement assay an active substance lowers the binding of a labelled ligand.)

Another data set concerns the target P-gp (MDR1-MDCKII cells) (Homo sapiens, UniProt P08183). Briefly: Bidirectional permeability in MDR1-MDCKII cells with and without GF120918. As to conditions: for P-gp substrate: MDR1-MDCKII cells; for Rank Papp: MDR1-MDCKII permeability rank. Here is the method:
(§1) MDR1-MDCKII cells were seeded onto […] (PET) in a 96-well insert system. Test and reference compounds were administered to the apical (A-to-B) and basolateral (B-to-A) sides of the cell monolayer. Permeation of the compounds in both directions was assessed, with and without a P-glycoprotein (P-gp) inhibitor (GF120918). […] After a 2.5-h incubation period, each compound’s permeability and efflux ratio were calculated as described in the SI. […]
(§2) Bidirectional permeability assessment in MDR1-MDCK cells. Test and reference compounds were quantified using LC -MS/MS ana lysis based on th e peak ar ea r atio of analyte to internal standard (IS). T he apparent permeability coefficient (Papp) in cm/s was computed using the equation: Pa pp = (dCr/d t ) × V r / ( A × C 0), where dCr/ d t […]
(§3) represents the cumulative concentration of the compound in the receiver chamber over time (µM/s), Vr is the solution volume in the receiver chamber (0.075 mL on the apical side, 0.25 mL on the basolateral side), A is the surface area for transport (0.0804 cm2 f or the monolayer ar ea), and C0 is the initial concentration in the donor chamber ( µM) .
(§4) The efflux ratio was determined using the equation Efflux Ratio = P a pp ( B:
(§5) A ) / Pa pp (A: B) . […]
(§6) Additionally, the percent of lucifer yellow in the basolateral well was calculated using the equation:
(§7) Lucif er yellow = VV bbbbbbbbbbbbbbbbbbbb ×RR FFFF bbbbbbbbbbbbbbbbbbbb ×100 VV bbaaaaaa bbbb ×RRRRRR bbaaaaaa bbbb+VV bbbbbbbbbbbbbbbbbbbb ×RRFFFF bbbbbbbbbbbbbbbbbbbb wher e RFUApical and RFUBasolateral demote the r elative f luor escence unit values of lucif er yellow in the apical and basolateral wells, respectively, and VApical and VBasolateral represent the volumes of apical and basolateral wells (0.075 mL and 0.25 mL, r espectively) . T he % Lucif er Yellow should be less than 2, indicating minimal leakage. […]

A further data set addresses P-gp (MDR1) (Homo sapiens, UniProt P08183). Described as above. As to conditions: dog; for Papp A→B at 2.5 h / Papp B→A at 2.5 h / efflux ratio at 2.5 h: MDCK-MDR1. Here is the method:
as §1, §2, §3, §4, §5, §6, §7

Setting [1] is: [3H]CP-55,940 displacement, mouse brain membranes, read-out: CB1R mKi.
Where [2] appears, read: MDCK-MDR1, Mean recovery % A to B, without GF120918.
The mark [3] stands for this setting: MDCK-MDR1, Mean recovery % B to A, without GF120918.

Sequence of P-gp (MDR1-MDCKII cells) (P08183 whole entry): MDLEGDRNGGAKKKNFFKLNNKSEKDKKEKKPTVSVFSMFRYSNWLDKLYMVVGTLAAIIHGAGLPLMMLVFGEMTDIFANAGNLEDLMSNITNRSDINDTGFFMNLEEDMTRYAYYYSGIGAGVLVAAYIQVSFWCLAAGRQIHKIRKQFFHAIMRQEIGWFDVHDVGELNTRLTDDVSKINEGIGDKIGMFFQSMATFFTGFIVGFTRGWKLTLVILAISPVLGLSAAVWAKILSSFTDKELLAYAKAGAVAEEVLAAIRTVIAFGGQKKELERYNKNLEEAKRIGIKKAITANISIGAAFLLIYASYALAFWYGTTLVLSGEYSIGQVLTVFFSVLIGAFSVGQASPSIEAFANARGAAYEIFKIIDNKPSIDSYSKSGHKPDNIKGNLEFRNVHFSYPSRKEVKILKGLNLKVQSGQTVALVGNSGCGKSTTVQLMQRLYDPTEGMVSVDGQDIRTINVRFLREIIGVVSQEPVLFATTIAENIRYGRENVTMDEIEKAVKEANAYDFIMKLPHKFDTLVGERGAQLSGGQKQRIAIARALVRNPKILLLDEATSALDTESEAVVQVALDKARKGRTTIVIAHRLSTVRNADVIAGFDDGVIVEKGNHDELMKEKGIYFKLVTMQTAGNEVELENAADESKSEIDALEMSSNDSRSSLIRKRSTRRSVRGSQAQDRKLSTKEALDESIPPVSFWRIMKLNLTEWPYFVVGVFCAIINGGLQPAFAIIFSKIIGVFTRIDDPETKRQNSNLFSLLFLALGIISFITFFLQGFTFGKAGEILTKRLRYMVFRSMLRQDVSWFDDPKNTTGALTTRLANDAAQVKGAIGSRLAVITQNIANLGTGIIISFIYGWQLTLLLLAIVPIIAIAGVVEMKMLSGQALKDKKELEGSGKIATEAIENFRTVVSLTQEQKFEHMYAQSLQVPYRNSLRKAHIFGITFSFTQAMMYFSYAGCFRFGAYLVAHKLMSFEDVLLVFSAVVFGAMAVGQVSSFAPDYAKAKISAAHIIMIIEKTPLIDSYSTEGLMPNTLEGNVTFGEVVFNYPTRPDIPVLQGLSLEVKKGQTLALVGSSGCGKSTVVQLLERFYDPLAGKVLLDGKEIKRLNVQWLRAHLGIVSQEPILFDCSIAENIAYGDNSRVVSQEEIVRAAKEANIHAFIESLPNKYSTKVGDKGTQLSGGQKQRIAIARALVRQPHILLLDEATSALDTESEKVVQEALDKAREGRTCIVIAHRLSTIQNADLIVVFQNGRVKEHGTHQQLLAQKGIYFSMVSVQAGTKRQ
Sequence of P-gp (MDR1) (P08183 whole entry): as above
T1 sequence (P47746 whole entry): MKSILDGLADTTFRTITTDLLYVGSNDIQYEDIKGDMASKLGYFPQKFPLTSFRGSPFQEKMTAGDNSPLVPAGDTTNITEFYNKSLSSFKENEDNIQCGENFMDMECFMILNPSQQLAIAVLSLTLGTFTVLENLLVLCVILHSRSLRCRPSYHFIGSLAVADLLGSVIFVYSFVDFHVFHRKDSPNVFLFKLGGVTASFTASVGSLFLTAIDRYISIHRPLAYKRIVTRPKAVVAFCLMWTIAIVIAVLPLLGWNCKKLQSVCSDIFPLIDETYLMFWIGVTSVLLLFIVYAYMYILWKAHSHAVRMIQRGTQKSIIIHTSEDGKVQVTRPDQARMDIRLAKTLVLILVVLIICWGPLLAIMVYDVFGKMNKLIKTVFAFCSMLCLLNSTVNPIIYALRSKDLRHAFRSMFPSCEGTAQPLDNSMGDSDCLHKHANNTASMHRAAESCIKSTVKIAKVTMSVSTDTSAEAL

Take `Cc1ccc(S(=O)(=O)NC2CCCOc3c2nn(-c2ccccc2Cl)c3-c2ccc(Cl)cc2)cc1` (stereo not shown) [BNS807]: at mouse CB1R (setting [1]), the Ki was found to be 0.01 µM.

What is called Papp A→B is the apparent permeability from the apical to the basolateral side of a cell layer. By Papp B→A is commonly meant the apparent permeability from the basolateral to the apical side of a cell layer. The term efflux ratio denotes a quotient of directional permeabilities that is used to spot active efflux. Regarding `O=S(=O)(NC1CCCOc2c1nn(-c1ccccc1Cl)c2-c1ccc(Cl)cc1)c1ccc(Cl)cc1` (stereo not shown) [BNS808, 4-chloro-N-[2-(2-chlorophenyl)-3-(4-chlorophenyl)-5,6,7,8-tetrahydrooxepino[3,2-c]pyrazol-8-yl]benzenesulfonamide], the Ki on mouse CB1R turned out to be 0.0007 µM. Besides, the “Papp A:B” value on P-gp (MDR1-MDCKII cells) (A to B, without GF120918) is recorded as 0.26 ×10^–6 cm/s. Besides, on P-gp (MDR1-MDCKII cells), the P-gp substrate entry is “P-gp substrate and P-gp substrates and yes”; the “Rank Papp” value is on record as “Low”. At P-gp (MDR1), the Papp A→B at 2.5 h is 2.6 nm/s, the Papp B→A at 2.5 h was determined as 10.1 nm/s and the efflux ratio at 2.5 h stood at 3.95. This molecule had a recovery at 2.5 h at P-gp (MDR1) (MDCK-MDR1, Mean recovery % A to B, with GF120918) of 7.87%. The same molecule yielded a recovery at 2.5 h on P-gp (MDR1) (setting [2]) of 7.9%. Besides, the recovery at 2.5 h on P-gp (MDR1) (MDCK-MDR1, Mean recovery % B to A, with GF120918) came out at 23.4%. At P-gp (MDR1) (setting [3]), this molecule gave a recovery at 2.5 h of 15.3%.

Turning to `CS(=O)(=O)N1CCC(C(=O)NC2CCCOc3c2nn(-c2ccccc2Cl)c3-c2ccc(Cl)cc2)CC1` (stereo not shown) [BNS815, N-[2-(2-Chlorophenyl)-3-(4-chlorophenyl)-5,6,7,8-tetrahydrooxepino[3,2-c]pyrazol-8-yl]-1-methylsulfonyl-piperidine-4-carboxamide], at mouse CB1R (setting [1]), the Ki was 0.018 µM. The P-gp substrate result at P-gp (MDR1-MDCKII cells) is listed as “yes”. On P-gp (MDR1-MDCKII cells), the “Rank Papp” value was “Hi gh”. The molecule further showed a Papp A→B at 2.5 h on P-gp (MDR1) of 101 nm/s. In addition, at P-gp (MDR1), the Papp B→A at 2.5 h turned out to be 189 nm/s. Also, the efflux ratio at 2.5 h at P-gp (MDR1) is 1.87. The recovery at 2.5 h on P-gp (MDR1) (setting [2]) was 75.2%; on P-gp (MDR1) (setting [3]), 76.1%; at P-gp (MDR1) (MDCK-MDR1, with GF120918 (concentration not stated), Mean recovery % A to B, with GF120918), 63.8%; on P-gp (MDR1) (MDCK-MDR1, with GF120918 (concentration not stated), Mean recovery % B to A, with GF120918) it was 77.6%.
